# Reference: patent publication US20220411794A1, “RNA OLIGONUCLEOTIDES FOR PREVENTING AGGREGATION OF PROTEINS” (Universitaet Wien, priority 2019, published 2022)
# Target: T1, human insulin (Homo sapiens, UniProt P01308)
# T1 construct: purchased SIGMA
# Assay: Human insulin aggregation assay (relative solubility)
# Format: physicochemical
# Conditions: 86 μM insulin : 20 μM RNA (molar ratio […]:1)
# Protocol: The insulin aggregation assay was performed in 150 mM Tris-HCl pH 7.5. Aggregation was monitored at 360 nm (excitation: 1 nm bandwidth, emission: 10 nm bandwidth) in macro-cuvettes (1500 μl) with a pathlength of 10 mm. 86 μM human insulin (SIGMA) with or without 20 μM RNA were pre-incubated at 30° C. and the aggregation reaction was started by the addition of dithiothreitol (DTT) to a final concentration of 15 mM.
# T1 sequence (P01308 25-54 limits assumed): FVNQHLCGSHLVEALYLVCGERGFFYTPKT
substance,measurement,value
"RNA1: GUGGAGGCGCUGUACCUGGUGUGCGGAGAGCGCGGC; fragment of native own mRNA coding for insulin β-chain region VEALYLVCGERG (RNA, backbone not given here)",increase in the relative solubility of insulin,21%
